Assay results as given in patent US8952026B2, “PRMT1 inhibitors and uses thereof” (Epizyme, Inc., priority 2013, dated 2015).

Target: T1, full-length human GST-tagged PRMT1 (Homo sapiens, UniProt Q99873)
T1 construct: GST-tagged PRMT1; made in house; host or cells: High Five insect cells (baculovirus, pFastBacI)
Assay: PRMT1 Biochemical Assay (3H-SAM Flashplate, histone H4 peptide substrate)
Source text: General Materials. S-adenosylmethionine (SAM), S-adenosylhomocysteine (SAH), bicine, Tween20, dimethylsulfoxide (DMSO), bovine skin gelatin (BSG), and Tris(2-carboxyethyl)phosphine hydrochloride solution (TCEP) were purchased from Sigma-Aldrich at the highest level of purity possible. ^3H-SAM was purchase from American Radiolabeled Chemicals with a specific activity of 80 Ci/mmol. 384-well streptavidin Flashplates were purchased from PerkinElmer.
Protein Expression. Recombinant baculovirus were generated according to Bac-to-Bac kit instructions (Life Technologies). Protein over-expression was accomplished by infecting exponentially growing High Five insect cell culture at 1.5×10^6cell/ml with 1:100 ratio of virus. Infections were carried out at 27° C. for 48 hours, harvested by centrifugation, and stored at −80° C. for purification.
Protein Purification. […] GST-tagged PRMT1 was eluted with 50 mM Tris, 2 mM glutathione, pH 7.8, dialysed in buffer A and concentrated to 1 mg/mL.
General Procedure for PRMT1 Enzyme Assays on Peptide Substrates. The assays were all performed in a buffer consisting of 20 mM Bicine (pH=7.6), 1 mM TCEP, 0.005% BSG, and 0.002% Tween 20, prepared on the day of use. […] DMSO (1 ul) was added to Columns 11, 12, 23, 24, rows A-H for the maximum signal control and 1 ul of SAH, a known product and inhibitor of PRMT1, was added to columns 11, 12, 23, 24, rows I-P for the minimum signal control. A cocktail (40 ul) containing the PRMT1 enzyme was added by Multidrop Combi (Thermo-Fisher). The compounds were allowed to incubate with PRMT1 for 30 min at room temperature, then a cocktail (10 ul) containing SAM and peptide was added to initiate the reaction (final volume=51 ul). […] The assays were stopped by the addition of non-radiolabeled SAM (10 ul) to a final concentration of 300 uM, which dilutes the ^3H-SAM to a level where its incorporation into the peptide substrate is no longer detectable. 50 ul of the reaction in the 384-well polypropylene plate was then transferred to a 384-well Flashplate and the biotinylated peptides were allowed to bind to the streptavidin surface for at least 1 hour before being washed once with 0.1% Tween20 in a Biotek ELx405 plate washer. The plates were then read in a PerkinElmer TopCount plate reader to measure the quantity of ^3H-labeled peptide bound to the Flashplate surface, measured as disintegrations per minute (dpm) or alternatively, referred to as counts per minute (cpm).
Where dpm=disintegrations per minute, cmpd=signal in assay well, and min and max are the respective minimum and maximum signal controls.
Where top and bottom are the normally allowed to float, but may be fixed at 100 or 0 respectively in a 3-parameter fit. The Hill Coefficient normally allowed to float but may also be fixed at 1 in a 3-parameter fit. Y is the % inhibition and X is the compound concentration.

T1 sequence (Q99873 with tags, fused parts or gaps): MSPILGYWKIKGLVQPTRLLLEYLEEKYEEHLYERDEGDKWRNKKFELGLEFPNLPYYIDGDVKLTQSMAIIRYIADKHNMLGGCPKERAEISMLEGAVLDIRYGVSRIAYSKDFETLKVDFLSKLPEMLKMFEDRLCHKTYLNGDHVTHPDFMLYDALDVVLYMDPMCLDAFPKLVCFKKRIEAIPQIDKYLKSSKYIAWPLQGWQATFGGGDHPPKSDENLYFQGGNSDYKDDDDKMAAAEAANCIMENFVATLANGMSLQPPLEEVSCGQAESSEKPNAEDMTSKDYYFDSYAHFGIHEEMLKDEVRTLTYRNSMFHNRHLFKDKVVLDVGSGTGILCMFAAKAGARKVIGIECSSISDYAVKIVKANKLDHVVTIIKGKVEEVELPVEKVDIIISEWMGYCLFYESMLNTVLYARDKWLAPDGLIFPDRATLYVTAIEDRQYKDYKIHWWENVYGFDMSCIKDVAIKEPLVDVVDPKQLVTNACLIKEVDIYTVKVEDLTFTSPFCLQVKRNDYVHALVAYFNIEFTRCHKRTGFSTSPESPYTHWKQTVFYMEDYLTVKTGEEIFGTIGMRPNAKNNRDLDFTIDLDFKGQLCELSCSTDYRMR

Compound | IC50 [µM]
CNCCN(C)Cc1c[nH]nc1-c1cccc(C(F)(F)F)c1 [Compound 1] | 0.101 to 1
CN(CCN)Cc1c[nH]nc1-c1cc(C(F)(F)F)cc(C(F)(F)F)c1 [Compound 2] | 0.101 to 1
CN(CCN)Cc1c[nH]nc1-c1ccc(Cl)c(C(F)(F)F)c1 [Compound 3] | < 0.1
CN(CCN)Cc1c[nH]nc1-c1ccc(F)c(C(F)(F)F)c1 [Compound 4] | < 0.1
CC(C)Oc1ccc(-c2n[nH]cc2CN(C)CCN)cc1C(F)(F)F [Compound 5] | < 0.1
CC(C)Oc1cc(-c2n[nH]cc2CN(C)CCN)cc(C(F)(F)F)c1 [Compound 6] | < 0.1
CN(CCN)Cc1n[nH]cc1-c1cc(C(F)(F)F)cc(C(F)(F)F)c1 [Compound 7] | 1.01 to 3
CC(C)Oc1ccc(-c2c[nH]nc2CN(C)CCN)cc1C(F)(F)F [Compound 8] | < 0.1
CNCCN(C)Cc1c[nH]nc1-c1ccc(OCCC(C)C)c(C(F)(F)F)c1 [Compound 9] | < 0.1
CNCCN(C)Cc1c[nH]nc1-c1ccc(OCC(C)C)c(C(F)(F)F)c1 [Compound 10] | < 0.1
CCCOc1ccc(-c2n[nH]cc2CN(C)CCNC)cc1C(F)(F)F [Compound 11] | < 0.1
CNCCN(C)Cc1c[nH]nc1-c1cc(OCCC(C)C)cc(C(F)(F)F)c1 [Compound 12] | < 0.1
CNCCN(C)Cc1c[nH]nc1-c1ccc(OCCCOC)c(C(F)(F)F)c1 [Compound 13] | < 0.1
CNCCN(C)Cc1c[nH]nc1-c1ccc(OCCOC)c(C(F)(F)F)c1 [Compound 14] | < 0.1
CNCCN(C)Cc1c[nH]nc1-c1cc(OCC(C)C)cc(C(F)(F)F)c1 [Compound 15] | < 0.1
CNCCN(C)Cc1c[nH]nc1-c1cc(OCCOC)cc(C(F)(F)F)c1 [Compound 16] | < 0.1
CNCCN(C)Cc1n[nH]cc1-c1ccc(OCCC(C)C)c(C(F)(F)F)c1 [Compound 17] | < 0.1
CNCCN(C)Cc1n[nH]cc1-c1ccc(OCC(C)C)c(C(F)(F)F)c1 [Compound 18] | < 0.1
CCCOc1cc(-c2n[nH]cc2CN(C)CCNC)cc(C(F)(F)F)c1 [Compound 19] | < 0.1
CNCCN(C)Cc1n[nH]cc1-c1ccc(OCCCOC)c(C(F)(F)F)c1 [Compound 20] | < 0.1
CNCCN(C)Cc1n[nH]cc1-c1ccc(OCCOC)c(C(F)(F)F)c1 [Compound 21] | < 0.1
CNCCN(C)Cc1n[nH]cc1-c1cc(OCCC(C)C)cc(C(F)(F)F)c1 [Compound 22] | < 0.1

Compound | IC50 [µM]
CN(CCN)Cc1c[nH]nc1-c1ccc(Oc2ccccc2)c(C(F)(F)F)c1 [Compound 23] | < 0.1
CNCCN(C)Cc1c[nH]nc1-c1cc(OCCCOC)cc(C(F)(F)F)c1 [Compound 24] | < 0.1
CNCCN(C)Cc1c[nH]nc1-c1cc(Cl)c(OC(C)C)c(C(F)(F)F)c1 [Compound 25] | < 0.1
CN(CCN)Cc1n[nH]cc1-c1ccc(Oc2ccccc2)c(C(F)(F)F)c1 [Compound 26] | < 0.1
CNCCN(C)Cc1n[nH]cc1-c1cc(OCCCOC)cc(C(F)(F)F)c1 [Compound 27] | 0.101 to 1
CCCOc1ccc(-c2c[nH]nc2CN(C)CCNC)cc1C(F)(F)F [Compound 28] | < 0.1
CNCCN(C)Cc1n[nH]cc1-c1cc(OCC(C)C)cc(C(F)(F)F)c1 [Compound 29] | < 0.1
CNCCN(C)Cc1n[nH]cc1-c1cc(OCCOC)cc(C(F)(F)F)c1 [Compound 30] | 0.101 to 1
CCCOc1cc(-c2c[nH]nc2CN(C)CCNC)cc(C(F)(F)F)c1 [Compound 31] | 0.101 to 1
CNCCN(C)Cc1n[nH]cc1-c1cc(C(O)C(C)C)cc(C(F)(F)F)c1 (stereo not shown) [Compound 32] | 1.01 to 3
CNCCN(C)Cc1n[nH]cc1-c1cc(Cl)c(OC(C)C)c(C(F)(F)F)c1 [Compound 33] | < 0.1
CNCCN(C)Cc1c[nH]nc1-c1ccc(CC(C)C)c(C(F)(F)F)c1 [Compound 34] | < 0.1
CNCCN(C)Cc1c[nH]nc1-c1cc(Cl)c(OCC2CCC2)c(C(F)(F)F)c1 [Compound 35] | < 0.1
CNCCN(C)Cc1c[nH]nc1-c1cc(Oc2ccccc2)cc(C(F)(F)F)c1 [Compound 36] | < 0.1
CNCCN(C)Cc1c[nH]nc1-c1cc(OCc2ccccc2)cc(C(F)(F)F)c1 [Compound 37] | < 0.1
CNCCN(C)Cc1c[nH]nc1-c1cc(Oc2ccncc2)cc(C(F)(F)F)c1 [Compound 38] | 0.101 to 1
CNCCN(C)Cc1c[nH]nc1-c1cc(OC2CCCCC2)cc(C(F)(F)F)c1 [Compound 39] | < 0.1
CC(C)CCOc1cc(-c2n[nH]cc2CN(C)CCN)cc(C(F)(F)F)c1Cl [Compound 40] | 0.101 to 1
CNCCN(C)Cc1c[nH]nc1-c1cc(Cl)c(OCC2CC2)c(C(F)(F)F)c1 [Compound 41] | < 0.1
CNCCN(C)Cc1c[nH]nc1-c1cc(OCC2CCC2)cc(C(F)(F)F)c1 [Compound 44] | < 0.1
CNCCN(C)Cc1c[nH]nc1-c1cc(OCC2CCCC2)cc(C(F)(F)F)c1 [Compound 45] | < 0.1
CNCCN(C)Cc1c[nH]nc1-c1cc(OCC2CCOCC2)cc(C(F)(F)F)c1 [Compound 46] | < 0.1

Compound | IC50 [µM]
CCC(CC)Oc1cc(-c2n[nH]cc2CN(C)CCNC)cc(C(F)(F)F)c1 [Compound 47] | < 0.1
CNCCN(C)Cc1c[nH]nc1-c1cc(OCCCC(F)(F)F)cc(C(F)(F)F)c1 [Compound 48] | < 0.1
CNCCN(C)Cc1c[nH]nc1-c1cc(OCCCC(C)=O)cc(C(F)(F)F)c1 [Compound 49] | < 0.1
CNCCN(C)Cc1c[nH]nc1-c1cc(OCCc2ccccc2OC)cc(C(F)(F)F)c1 [Compound 50] | < 0.1
CNCCN(C)Cc1c[nH]nc1-c1cc(Oc2cccnc2)cc(C(F)(F)F)c1 [Compound 51] | < 0.1
CNCCN(C)Cc1c[nH]nc1-c1cc(Oc2ccccn2)cc(C(F)(F)F)c1 [Compound 52] | < 0.1
CNCCN(C)Cc1c[nH]nc1-c1cc(Oc2cncnc2)cc(C(F)(F)F)c1 [Compound 53] | 0.101 to 1
CNCCN(C)Cc1c[nH]nc1-c1cc(OCCC(C)C)c(Cl)c(C(F)(F)F)c1 [Compound 54] | 0.101 to 1
CNCCN(C)Cc1c[nH]nc1-c1cc(OCCOC)c(Cl)c(C(F)(F)F)c1 [Compound 55] | 0.101 to 1
COCCOc1cc(-c2n[nH]cc2CN(C)CCN)cc(C(F)(F)F)c1Cl [Compound 56] | 0.101 to 1
CNCCN(C)Cc1c[nH]nc1-c1cc(OCCCOC)c(Cl)c(C(F)(F)F)c1 [Compound 57] | < 0.1
CNCCN(C)Cc1c[nH]nc1-c1cc(C)c(OCC2CCC2)c(C(F)(F)F)c1 [Compound 58] | < 0.1
CNCCN(C)Cc1c[nH]nc1-c1cc(C)c(OC2CCOCC2)c(C(F)(F)F)c1 [Compound 59] | < 0.1
CNCCN(C)Cc1c[nH]nc1-c1cc(OCC(F)(F)F)cc(C(F)(F)F)c1 [Compound 60] | < 0.1
CNCCN(C)Cc1c[nH]nc1-c1cc(OCCCC(=O)OC)cc(C(F)(F)F)c1 [Compound 61] | < 0.1
CNCCN(C)Cc1c[nH]nc1-c1cc(CCC(C)C)cc(C(F)(F)F)c1 [Compound 62] | < 0.1
CC(C)CCc1cc(-c2n[nH]cc2CN(C)CCN)cc(C(F)(F)F)c1 [Compound 63] | < 0.1
CNCCN(C)Cc1c[nH]nc1-c1cc(OCCOC)c(F)c(C(F)(F)F)c1 [Compound 64] | < 0.1
CNCCN(C)Cc1c[nH]nc1-c1cc(C)c(OCC2CCOCC2)c(C(F)(F)F)c1 [Compound 65] | < 0.1
CNCCN(C)Cc1c[nH]nc1-c1cc(C)c(OC2COC2)c(C(F)(F)F)c1 [Compound 66] | < 0.1
